Assay: Stability tests of the crystal forms (high temperature, high humidity, light)
Format: physicochemical
Conditions: general statement; tests at 60° C., 40° C./75% humidity, 5000 Lx described but data not given
Description: The crystal forms prepared in Examples 1-3 were tested in the accelerated test under high temperature conditions for stability in accordance with Guidelines for the Stability Test of Pharmaceutical Ingredients and Pharmaceutical Preparations (Chinese Pharmacopoeia 2010 Appendix XIXC).
The crystal forms C, D and E prepared in Examples 1-3 were placed in an open-clean container at 60° C., respectively. The samples were taken for test on day 10, day 20 and day 30, respectively. The results were compared with the initial test result on day 0.
The crystal forms prepared in Examples 1-3 were tested in the accelerated test under high humidity conditions for stability in accordance with Guidelines for the Stability Test of Pharmaceutical Ingredients and Pharmaceutical Preparations (Chinese Pharmacopoeia 2010 Appendix XIXC).
The crystal forms C, D and E prepared in Examples 1-3 were subjected to an accelerated test in a constant temperature and humidity vessel under the conditions of 40° C./75% humidity (open). The samples were taken for test on day 30, day 60 and day 90, respectively. The results were compared with the initial test result on day 0. […]

Compound: CCCCOc1nc(N)c2[nH]cc(Cc3ccc(CN4CCCC4)cc3)c2n1.O=C(O)/C=C\C(=O)O [crystal form C, Maleate of 2-butoxy-7-(4-(pyrrolidin-1-ylmethyl)benzyl)-5H-pyrrolo[3,2-d]pyrimidin-4-amine]
- stability of the crystal form: good stability
